According to ChEMBL document CHEMBL3745700, “Functionalised isocoumarins as antifungal compounds: Synthesis and biological studies” (Bioorg Med Chem Lett, 2016):
≈ marks a conversion by molar mass, not a printed value. Calls of active or inactive are those of the source. The rule behind the calls is not given here.

How the values were obtained:
[1] = test system: Candida albicans; assay: Antifungal activity against Candida albicans ATCC 10231 by broth microdilution method; assay type: functional
[2] = test system: Candida albicans; assay: Antifungal activity against Candida albicans ATCC 10231 assessed as inhibition of hyphal formation at MIC70 after 36 hrs by microscopic analysis; assay type: functional, organism-based
[3] = Hemolytic activity in Sheep RBC at MIC and IC50 after 1 hr by multiplate reader analysis; assay type: ADME, cell-based, Ovis aries; settings: erythrocyte
[4] = test system: Pichia kudriavzevii; assay: Antifungal activity against azole-resistant Candida krusei ATCC 6258 by broth microdilution method; assay type: functional
[5] = test system: MRC5; assay: Cytotoxicity against human MRC5 cells after 48 hrs by MTT assay; assay type: cell-based; settings: MRC5, 48 h
[6] = test system: Candida parapsilosis; assay: Antifungal activity against azole-resistant Candida parapsilosis CA-27 clinical isolate by broth microdilution method; assay type: functional
[7] = test system: Candida albicans; assay: Antifungal activity against Candida albicans ATCC 10231 assessed as growth inhibition at 250 ug/disc by disc diffusion method; assay type: functional, organism-based
[8] = test system: Candida albicans; assay: Binding affinity to Candida albicans ATCC 10231 DNA assessed as degradation at 25 ug/ml after 12 hrs by agarose gel electrophoresis
[9] = test system: Candida albicans; assay: Stimulation of hyphal formation in Candida albicans ATCC 10231 at MIC70 after 36 hrs by microscopic analysis; assay type: functional, organism-based
[10] = test system: Candida albicans; assay: Antifungal activity against Candida albicans ATCC 10231 assessed as inhibition of biofilm formation at MIC70 after 48 hrs by propidium iodide/Concanavaline A-FITC staining-based fluorescence microscopic analysis; assay type: functional, organism-based

In the case of `O=c1oc(-n2cc(Cl)cn2)cc2ccccc12`, the MIC [1] is reported as 5 µg/mL (≈ 20.3 µM), the inhibition [2] is reported as “Active” and the Activity [3] is reported as “Non-toxic”. The MIC [4] was 125 µg/mL (≈ 507 µM), the IC50 [5] was 15 µg/mL (≈ 60.8 µM) and the MIC ([6]; Lodderomyces parapsilosis) was greater than 500 µg/mL.

With `COC(=O)/C=C/c1cc2ccccc2c(=O)o1` the MIC [1] was 500 µg/mL (≈ 2170 µM), the inhibition [2] was “Active” and the Activity [3] was “Non-toxic”. For the same compound, the IC50 [5] was 30 µg/mL (≈ 130 µM), the “growth inhibition (GI)” value [7] was “Active” and the Activity [8] was “inactive”.

In the case of `O=c1oc(Br)cc2ccccc12`, the MIC [1] is reported as 15.6 µg/mL (≈ 69.3 µM), the inhibition [2] is reported as “Active” and the Activity [3] is reported as “Non-toxic”. For the same compound, the MIC [4] was 3.9 µg/mL (≈ 17.3 µM), the IC50 [5] was 20 µg/mL (≈ 88.9 µM) and the “growth inhibition (GI)” value [7] was “Active”. For the same compound, the Activity [8] was “inactive” and the MIC ([6]; Lodderomyces parapsilosis) was 62.5 µg/mL (≈ 278 µM).

In the case of `O=c1oc(-n2cccn2)cc2ccccc12`, the MIC [1] is reported as 31.2 µg/mL (≈ 147 µM), the inhibition [2] is reported as “Active” and the Activity [3] is reported as “Non-toxic”. The MIC [4] was greater than 500 µg/mL, the IC50 [5] was 30 µg/mL (≈ 141 µM) and the Activity [8] was “inactive”. For the same compound, the MIC ([6]; Lodderomyces parapsilosis) was greater than 500 µg/mL.

For `C[C@@H](c1ncncc1F)[C@](O)(Cn1cncn1)c1ccc(F)cc1F` [VORICONAZOLE], the MIC [1] was 7.8 µg/mL (≈ 22.3 µM), the inhibition [2] was “Active” and the MIC [4] was “inactive”. For the same compound, the IC50 [5] was 40 µg/mL (≈ 115 µM) and the MIC [6] was “inactive”.

In the case of `C[Si](C)(C)C#Cc1cc2ccccc2c(=O)o1`, the Activity [9] is reported as “Active”, the MIC [1] is reported as 250 µg/mL (≈ 1030 µM) and the Activity [3] is reported as “Non-toxic”. The IC50 [5] was 30 µg/mL (≈ 124 µM), the “growth inhibition (GI)” value [7] was “Active” and the Activity [8] was “inactive”.

For `O=c1oc(-n2cncn2)cc2ccccc12`, the MIC [1] was 20 µg/mL (≈ 93.8 µM), the inhibition [2] was “Active” and the Activity [3] was “Non-toxic”. For the same compound, the MIC [4] was 125 µg/mL (≈ 586 µM), the IC50 [5] was 40 µg/mL (≈ 188 µM) and the inhibition [10] was “Active”. The Activity [8] was “inactive” and the MIC ([6]; Lodderomyces parapsilosis) was greater than 500 µg/mL.

For `O=c1oc(-n2cnnn2)cc2ccccc12`, the MIC [1] was 15.6 µg/mL (≈ 72.8 µM), the inhibition [2] was “Active” and the Activity [3] was “Non-toxic”. For the same compound, the MIC [4] was 62.5 µg/mL (≈ 292 µM), the IC50 [5] was 10 µg/mL (≈ 46.7 µM) and the Activity [8] was “inactive”. For the same compound, the MIC ([6]; Lodderomyces parapsilosis) was 125 µg/mL (≈ 584 µM).

In the case of `CCOC(=O)c1cn(-c2cc3ccccc3c(=O)o2)cn1`, the Activity [9] is reported as “Active”, the MIC [1] is reported as 62.5 µg/mL (≈ 220 µM) and the MIC [4] is reported as greater than 500 µg/mL. The IC50 [5] was 25 µg/mL (≈ 87.9 µM), the inhibition [10] was “Active” and the MIC ([6]; Lodderomyces parapsilosis) was greater than 500 µg/mL.

With `O=c1oc(-n2c(C(F)(F)F)nc3ccccc32)cc2ccccc12` the Activity [9] was “Active”, the MIC [1] was 150 µg/mL (≈ 454 µM) and the IC50 [5] was 15 µg/mL (≈ 45.4 µM).

In the case of `O=c1oc(-n2ccnc2)cc2ccccc12`, the MIC [1] is reported as 62.5 µg/mL (≈ 295 µM), the inhibition [2] is reported as “Active” and the Activity [3] is reported as “Non-toxic”. For the same compound, the IC50 [5] was 25 µg/mL (≈ 118 µM) and the Activity [8] was “inactive”.
